Results taken from PubChem BioAssay (NCI).
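How tested: cells in 96-well plates exposed to compound for 48 hours at five concentrations. GI50 = concentration required for 50% inhibition of growth. The concentration for full growth arrest is given as TGI.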

Columns and labels:
Assay in all cases: inhibition of tumour cell growth, NCI panel, 48 h
[1] = test system: HCC-2998 colon
[2] = test system: SN12C renal
[3] = test system: SNB-75 CNS
[4] = test system: EKVX NSCLC
[5] = test system: COLO 205 colon
[6] = test system: SK-MEL-28 melanoma
[7] = test system: SK-MEL-2 melanoma
[8] = test system: 786-0 renal
[9] = test system: HS 578T breast
[10] = test system: SF-268 CNS

## O=C(O)CC(Cc1ccc2c(c1)OCO2)C(=O)O (stereo not drawn)
[1]
  TGI: > 100 µM
[2]
  TGI: > 100 µM
[3]
  TGI: > 100 µM
[4]
  TGI: > 100 µM
[5]
  TGI: > 100 µM
[6]
  TGI: > 100 µM
[7]
  TGI: > 100 µM
[8]
  TGI: > 100 µM
[9]
  TGI: > 100 µM
[10]
  TGI: > 100 µM

## N#C/C(=C\c1cn(-c2ccccc2)c2ccccc12)C(=O)O
[1]
  GI50: 49.5 µM
  TGI: > 100 µM
[2]
  GI50: 51.1 µM
  TGI: > 100 µM
[3]
  GI50: 31.4 µM
  TGI: > 100 µM
[4]
  GI50: 34.2 µM
  TGI: > 100 µM
[5]
  GI50: 85.9 µM
  TGI: > 100 µM
[6]
  GI50: 33.9 µM
  TGI: > 100 µM
[7]
  GI50: 28 µM
  TGI: > 100 µM
[8]
  GI50: 61.2 µM
  TGI: > 100 µM
[9]
  GI50: 32.2 µM
  TGI: > 100 µM
[10]
  GI50: 43.4 µM
  TGI: > 100 µM

## COc1ncnc2c(NC3OC(CO)C(O)C3O)ncnc12 (stereo not drawn)
[1]
  TGI: > 35 µM
[2]
  TGI: 10.6 µM
[3]
  TGI: 6.38 µM
[4]
  TGI: > 49 µM
[5]
  TGI: 7.54 µM
[6]
  TGI: > 100 µM
[7]
  TGI: > 100 µM
[8]
  TGI: 14 µM
[9]
  TGI: 4.86 µM
[10]
  TGI: > 100 µM

## O=C(Oc1ccccc1)c1cc(O)c(O)c(O)c1
[1]
  GI50: 13.5 µM
  TGI: 44.3 µM
[2]
  GI50: 9.73 µM
  TGI: > 100 µM
[3]
  GI50: 7.41 µM
  TGI: > 100 µM
[4]
  GI50: 8.95 µM
  TGI: > 100 µM
[5]
  GI50: 18.9 µM
  TGI: > 100 µM
[6]
  GI50: 19.2 µM
  TGI: > 100 µM
[7]
  GI50: 35.9 µM
  TGI: > 100 µM
[8]
  GI50: 11.2 µM
  TGI: 50 µM
[9]
  GI50: 4.67 µM
  TGI: > 100 µM
[10]
  GI50: 8.15 µM
  TGI: > 100 µM

## Cn1c2ccccc2c2c(=O)n(CCCC(=O)NCC(=O)OC(=NC3CCCCC3)NC3CCCCC3)c3c(-c4ccccc4)nnn3c21
[1]
  GI50: 10.2 µM
  TGI: 26.8 µM
[2]
  GI50: 19.5 µM
  TGI: 50.7 µM
[5]
  GI50: 2.81 µM
  TGI: > 100 µM
[7]
  GI50: 33.1 µM
  TGI: > 100 µM
[8]
  GI50: 18.5 µM
  TGI: 45.1 µM
[9]
  GI50: 9.43 µM
  TGI: > 100 µM
[10]
  GI50: 15 µM
  TGI: > 100 µM

## Cc1c(C(=O)/C=C/c2ccc(O)cc2)nnn1-c1ccnc2c(C(F)(F)F)cccc12
[1]
  GI50: 20.9 µM
  TGI: > 100 µM
[2]
  GI50: 18 µM
  TGI: > 100 µM
[3]
  GI50: 8.81 µM
  TGI: 68.2 µM
[4]
  GI50: 39 µM
  TGI: > 100 µM
[5]
  GI50: 5.68 µM
  TGI: 34.8 µM
[6]
  GI50: 51.8 µM
  TGI: > 100 µM
[7]
  GI50: > 100 µM
  TGI: > 100 µM
[8]
  GI50: > 100 µM
  TGI: > 100 µM
[9]
  GI50: 60.7 µM
  TGI: > 100 µM
[10]
  GI50: 4.08 µM
  TGI: 71.8 µM

## COc1ccc2c(c1)[nH]c(=O)c1c3cccnc3cn21
[1]
  GI50: 0.0744 µM
  TGI: 17.7 µM
[2]
  GI50: 0.0802 µM
  TGI: > 100 µM
[3]
  GI50: 0.031 µM
  TGI: 57.3 µM
[4]
  GI50: 1.12 µM
  TGI: > 94.5 µM
[5]
  GI50: 0.0359 µM
  TGI: 0.146 µM
[6]
  GI50: 0.054 µM
  TGI: > 100 µM
[7]
  GI50: 0.037 µM
  TGI: 11.3 µM
[8]
  GI50: 0.066 µM
  TGI: 15.8 µM
[9]
  GI50: 0.0384 µM
  TGI: > 48.8 µM
[10]
  GI50: 0.0686 µM
  TGI: 42.7 µM

## COc1ccc(NC2=C(Sc3nc(C)cc(C)n3)C(=O)N(Cc3ccccc3)C2=O)cc1Cl
[1]
  GI50: > 160 µM
  TGI: > 160 µM
[3]
  GI50: 40.8 µM
  TGI: > 160 µM
[4]
  GI50: 157 µM
  TGI: > 160 µM
[5]
  GI50: > 160 µM
  TGI: > 160 µM
[6]
  GI50: > 160 µM
  TGI: > 160 µM
[7]
  GI50: 138 µM
  TGI: > 160 µM
[8]
  GI50: 49.2 µM
  TGI: > 160 µM
[9]
  GI50: 67.9 µM
  TGI: > 160 µM
[10]
  GI50: > 160 µM
  TGI: > 160 µM

## Cc1sc2ncnc(Sc3nc4ccccc4[nH]3)c2c1C
[1]
  GI50: 50.4 µM
  TGI: > 100 µM
[2]
  GI50: 32.5 µM
  TGI: > 100 µM
[3]
  GI50: 1.52 µM
  TGI: 27 µM
[5]
  GI50: 33.5 µM
  TGI: > 100 µM
[6]
  GI50: 23.4 µM
  TGI: 74.7 µM
[7]
  GI50: 33.5 µM
  TGI: 99 µM
[8]
  GI50: 37.3 µM
  TGI: > 100 µM
[9]
  GI50: 18.4 µM
  TGI: 67.6 µM
[10]
  GI50: 20.6 µM
  TGI: 62.1 µM

## COc1n[n+]([O-])c(C)cc1[N+](=O)[O-]
[1]
  GI50: 14.3 µM
  TGI: 27.6 µM
[2]
  GI50: 13.5 µM
  TGI: 31.6 µM
[4]
  GI50: 18.1 µM
  TGI: 34.3 µM
[7]
  GI50: 11.2 µM
  TGI: 24.5 µM
[8]
  GI50: 8.4 µM
  TGI: 21.7 µM
[9]
  GI50: 32.3 µM
  TGI: 67.3 µM
[10]
  GI50: 18.1 µM
  TGI: 39.4 µM

## CCCCCCN1C(=O)/C(=c2\sc3n(c2=O)C2C(NN=3)N(CC)C(=O)N2CC)c2ccccc21 (stereo not drawn)
[1]
  GI50: 5.83 µM
  TGI: > 50 µM
[2]
  GI50: 2.74 µM
  TGI: > 50 µM
[3]
  GI50: 0.762 µM
  TGI: 2.31 µM
[4]
  GI50: 2.84 µM
  TGI: > 50 µM
[5]
  GI50: 2.21 µM
  TGI: 38.3 µM
[6]
  GI50: 2.09 µM
  TGI: > 50 µM
[7]
  GI50: 3.06 µM
  TGI: > 50 µM
[8]
  GI50: 1.6 µM
  TGI: > 50 µM
[9]
  GI50: 1.12 µM
  TGI: 3.28 µM

## COc1ccc(C2=NNC(c3ccc(-c4ccc(OC)cc4[N+](=O)[O-])o3)C2)cc1 (stereo not drawn)
[1]
  GI50: 36.9 µM
  TGI: > 100 µM
[3]
  GI50: 21.2 µM
  TGI: 84.3 µM
[4]
  GI50: 18.4 µM
  TGI: > 100 µM
[5]
  GI50: > 100 µM
  TGI: > 100 µM
[6]
  GI50: > 100 µM
  TGI: > 100 µM
[7]
  GI50: > 100 µM
  TGI: > 100 µM
[8]
  GI50: 48.8 µM
  TGI: > 100 µM
[9]
  GI50: 22.1 µM
  TGI: 57.5 µM
[10]
  GI50: 20.3 µM
  TGI: 53.2 µM

## C=C1C(=O)O[C@H]2[C@H]1CC/C(COC(=O)NCCc1ccc(OC)cc1)=C\CC[C@@]1(C)O[C@@H]21
[1]
  GI50: 2.48 µM
  TGI: 5.63 µM
[3]
  GI50: 4.09 µM
  TGI: 16.6 µM
[4]
  GI50: 7.45 µM
  TGI: 21.5 µM
[5]
  GI50: 1.94 µM
  TGI: 4.18 µM
[6]
  GI50: 1.99 µM
  TGI: 4.39 µM
[7]
  GI50: 8.97 µM
  TGI: 21.9 µM
[8]
  GI50: 1.76 µM
  TGI: 4.22 µM
[9]
  GI50: 13.8 µM
  TGI: 62.9 µM
[10]
  GI50: 10.6 µM
  TGI: 23.3 µM
